According to patent US20240150370A1, “BICYCLIC PYRIDINE DERIVATIVE” (Sumitomo Pharma Co., Ltd., priority 0001, published 2024):
Structures can show the parent of a compound that is named as a salt. Where two headings read alike, the source gives them in different places.

How the values were obtained:
hERG channel = hERG channel (Homo sapiens (Human), UniProt Q12809); test: Evaluation of hERG channel inhibitory activity (whole-cell patch clamp, hERG-CHO cells); format: cell-based; conditions: autopatch clamp, read-out: hERG inhibition IC50
Chain of hERG channel (Q12809 whole entry): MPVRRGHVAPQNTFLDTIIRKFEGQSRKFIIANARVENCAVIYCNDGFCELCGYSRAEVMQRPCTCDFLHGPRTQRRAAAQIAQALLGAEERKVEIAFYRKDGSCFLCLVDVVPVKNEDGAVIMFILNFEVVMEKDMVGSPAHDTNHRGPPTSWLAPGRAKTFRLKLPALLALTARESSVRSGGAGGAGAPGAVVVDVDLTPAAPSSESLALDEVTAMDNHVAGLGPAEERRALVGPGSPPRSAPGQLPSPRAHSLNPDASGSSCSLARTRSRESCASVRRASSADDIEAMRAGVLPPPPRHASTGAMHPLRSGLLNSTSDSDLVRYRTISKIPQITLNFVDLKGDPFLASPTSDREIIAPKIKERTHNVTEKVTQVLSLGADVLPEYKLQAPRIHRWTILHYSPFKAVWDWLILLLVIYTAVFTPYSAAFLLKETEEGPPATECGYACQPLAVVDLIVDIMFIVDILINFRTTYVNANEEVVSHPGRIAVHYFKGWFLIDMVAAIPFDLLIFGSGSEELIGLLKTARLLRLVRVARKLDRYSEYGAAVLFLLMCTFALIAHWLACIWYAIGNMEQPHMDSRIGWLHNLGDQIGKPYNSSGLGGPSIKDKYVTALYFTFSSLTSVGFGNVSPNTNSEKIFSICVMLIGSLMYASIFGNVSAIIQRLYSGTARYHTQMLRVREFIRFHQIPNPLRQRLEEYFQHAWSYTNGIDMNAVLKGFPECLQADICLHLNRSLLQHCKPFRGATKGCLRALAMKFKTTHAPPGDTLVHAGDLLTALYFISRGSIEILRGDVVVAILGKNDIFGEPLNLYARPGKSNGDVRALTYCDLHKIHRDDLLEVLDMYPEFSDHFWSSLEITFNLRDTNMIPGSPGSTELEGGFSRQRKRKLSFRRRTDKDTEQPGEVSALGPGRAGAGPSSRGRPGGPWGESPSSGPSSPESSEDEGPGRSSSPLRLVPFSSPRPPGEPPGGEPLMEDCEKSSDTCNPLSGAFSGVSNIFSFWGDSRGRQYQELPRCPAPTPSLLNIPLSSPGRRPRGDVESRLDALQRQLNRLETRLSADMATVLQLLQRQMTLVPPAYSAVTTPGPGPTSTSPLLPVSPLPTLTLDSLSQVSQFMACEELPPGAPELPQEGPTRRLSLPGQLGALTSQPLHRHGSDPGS

human TAAR1 receptor = human TAAR1 receptor (Homo sapiens (Human), UniProt Q96RJ0); test: Evaluation of agonist activity on human TAAR1 receptor (cAMP assay); format: cell-based; conditions: for activation at 0.1 µM / activation at 1 µM / activation at 10 µM: CHO, 0.5 h, read-out: TAAR1 agonist activity at each concentration (%)
Chain of human TAAR1 receptor (Q96RJ0 whole entry): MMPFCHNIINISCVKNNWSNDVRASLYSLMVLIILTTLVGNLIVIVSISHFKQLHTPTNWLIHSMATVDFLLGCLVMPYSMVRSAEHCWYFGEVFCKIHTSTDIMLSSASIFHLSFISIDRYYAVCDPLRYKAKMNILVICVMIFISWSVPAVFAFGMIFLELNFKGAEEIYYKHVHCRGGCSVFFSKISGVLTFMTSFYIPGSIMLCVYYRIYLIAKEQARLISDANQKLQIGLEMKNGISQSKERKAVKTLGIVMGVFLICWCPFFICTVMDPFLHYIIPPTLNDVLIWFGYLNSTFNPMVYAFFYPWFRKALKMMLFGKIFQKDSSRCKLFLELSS
Description: TAAR1 is a G protein-coupled receptor that binds to G proteins (Gas), and activation of the TAAR1 receptor by agonists induces an increase in intracellular cAMP levels. Therefore, the agonist activity of the sample on the human TAAR1 receptor was evaluated using the cAMP assay method.
cAMP Hunter™ CHO-K1 TAAR1 Gs Cell Line, a cell expressing human TAAR1 receptor, was purchased. Human TAAR1-expressing CHO cells were seeded in a 96-well plate, and after culturing for 24 hours, a sample dissolved in DMSO was added and incubated at 37° C. for 30 minutes. A sample for cAMP measurement was prepared according to the cAMPHiRange kit protocol. The amount of cAMP produced by the sample was measured by time-resolved fluorescence using EnVision (excitation wavelength: 330 nm, fluorescence wavelength […]/665 nm).
Sample %=100×{(Csamp)−(Cblank)}/{(Ctyramine)−(Cblank)} • Csamp: count of sample, Ctyramine: count of 100 μM tyramine, Cblank: count of blank

[1] = 100 nM, cAMP in human TAAR1-expressing CHO cells, relative to 100 μM tyramine
[2] = 1000 nM, cAMP in human TAAR1-expressing CHO cells, relative to 100 μM tyramine
[3] = 10000 nM, cAMP in human TAAR1-expressing CHO cells, relative to 100 μM tyramine

Row | Compound | activation at 0.1 µM (human TAAR1 receptor; [1]) | activation at 1 µM (human TAAR1 receptor; [2]) | activation at 10 µM (human TAAR1 receptor; [3]) | also measured
1 | C[C@@H]1C[C@@H](CN)c2ncccc2S1 (racemic) [Example 14] | 10% | 47% | 74% | IC50 (hERG channel): > 100 µM
2 | C[C@H]1Sc2cccnc2[C@@H]1CN (racemic) [Example 15] | 24% | 67% | 90% | IC50 (hERG channel): > 100 µM
3 | C[C@@H]1Sc2cccnc2[C@@H]1CN (racemic) [Example 16] | 6% | 37% | 76% | IC50 (hERG channel): 68.6 µM
4 | NC[C@H]1C[C@@H](c2ccccc2)Oc2cccnc21 (racemic) [Example 24] | 25% | 71% | 101% | IC50 (hERG channel): 6.9 µM
5 | NC[C@@H]1C[C@@H](c2ccccc2)Oc2cccnc21 (racemic) [Example 25] | 2% | 21% | 63% | IC50 (hERG channel): 5.8 µM
6 | CNCC1CCSc2cccnc21 (racemic) [Example 45, rac-1-(3,4-dihydro-2H-thiopyrano[3,2-b]pyridin-4-yl)-N-methylmethanamine dihydrochloride] | 13% | 51% | 77% | IC50 (hERG channel): > 100 µM
7 | COc1ccc2c(n1)C(CN)CCC2 (racemic) [Example 88, rac-1-(2-methoxy-5,6,7,8-tetrahydroquinolin-8-yl)methanamine dihydrochloride] | 11% | 38% | 65% | IC50 (hERG channel): > 100 µM
8 | Cc1ccc2c(n1)C(CN)C1(CC1)O2 (racemic) [Example 90, rac-1-(5′-methyl-3′H-spiro[cyclopropane-1,2′-furo[3,2-b]pyridine]-3′-yl)methanamine dihydrochloride] | 54% | 85% | 94% | IC50 (hERG channel): 71.8 µM
9 | NC[C@@H]1CCSc2cccnc21 (single isomer, unassigned) [Example 40, dihydrochloride] | 25% | 57% | 68% | IC50 (hERG channel): > 100 µM
10 | NC[C@H]1CSc2cccnc21 (single isomer, unassigned) [Example 41, dihydrochloride] | 12% | 38% | 65% | IC50 (hERG channel): > 100 µM
11 | NC[C@@H]1CSc2cccnc21 (single isomer, unassigned) [Example 42, dihydrochloride] | 25% | 70% | 90% | IC50 (hERG channel): > 100 µM
12 | NC[C@H]1c2ncccc2OC12CC2 (single isomer, unassigned) [Example 97, rel-1-[(3'S)-3′H-spiro[cyclopropane-1,2′-furo[3,2-b]pyridine]-3′-yl]methanamine dihydrochloride] | 70% | 101% | 96% | IC50 (hERG channel): > 100 µM
13 | C[C@@H]1COc2cccnc2[C@@H]1CN (stereo in doubt) [Example 2, rac-1-[(3S,4S)-3-methyl-3,4-dihydro-2H-pyrano[3,2-b]pyridin-4-yl]methanamine dihydrochloride] | 7% | 37% | 75% | IC50 (hERG channel): > 100 µM
14 | CC[C@H]1Oc2cccnc2[C@@H]1CN (stereo in doubt) [Example 43, rel-1-[(2R,3S)-2-ethyl-2,3-dihydrofuro[3,2-b]pyridin-3-yl]methanamine dihydrochloride] | 0% | 0% | 7% | 
15 | [2H][C@]1(C)Oc2cccnc2[C@@H]1CN (stereo in doubt) [Example 57] | 32% | 72% | 79% | 
16 | [2H][C@@]1(C)Oc2cccnc2[C@H]1CN (stereo in doubt) [Example 94, rel-1-[(2S,3R)-2-methyl(2-^2H)-2,3-dihydrofuro[3,2-b]pyridin-3-yl]methanamine dihydrochloride] | 1% | 4% | 28% | 
17 | NCC1CSc2cccnc21 (stereo not shown) [Example 10] | 18% | 66% | 91% | 
18 | Cc1ccc2c(n1)[C@@H](CN)C[C@@H](C)O2 [Example 17] | 0% | 4% | 25% | 
19 | C[C@@H]1Oc2cccnc2[C@H]1CN [Example 19] | 2% | 13% | 51% | 
20 | C[C@@H]1Oc2cccnc2[C@@H]1CN [Example 20] | 33% | 88% | 107% | 
21 | Cc1cnc2c(c1)O[C@H](C)[C@H]2CN [Example 28] | 7% | 38% | 71% | 
22 | C[C@H]1Oc2ccc(C(F)(F)F)nc2[C@@H]1CN [Example 30] | 2% | 18% | 63% | 
23 | C[C@H]1Oc2cc(C(F)(F)F)cnc2[C@@H]1CN [Example 31] | 1% | 3% | 12% | 

Row | Compound | activation at 0.1 µM (human TAAR1 receptor; [1]) | activation at 1 µM (human TAAR1 receptor; [2]) | activation at 10 µM (human TAAR1 receptor; [3]) | also measured
24 | C[C@@H]1C[C@H](CN)c2ncc(F)cc2O1 [Example 52] | 1% | 8% | 48% | 
25 | CC1(C)COc2cccnc2C1CN (stereo not shown) [Example 53] |  |  |  | activation at 0.1 µM (human TAAR1 receptor): 0%; activation at 1 µM (human TAAR1 receptor): 3%; activation at 10 µM (human TAAR1 receptor): 18%
26 | C[C@H]1Oc2cccnc2[C@@H]1C(C)(C)N [Example 54] | 15% | 63% | 94% | 
27 | C[C@H](N)[C@H]1c2ncccc2O[C@@H]1C [Example 55] |  |  |  | TAAR1 agonist activity at each concentration (%) (human TAAR1 receptor; [1]): 31%; TAAR1 agonist activity at each concentration (%) (human TAAR1 receptor; [2]): 75%; TAAR1 agonist activity at each concentration (%) (human TAAR1 receptor; [3]): 87%
28 | C[C@@H](N)[C@H]1c2ncccc2O[C@@H]1C [Example 56] |  |  |  | TAAR1 agonist activity at each concentration (%) (human TAAR1 receptor; [1]): 23%; TAAR1 agonist activity at each concentration (%) (human TAAR1 receptor; [2]): 67%; TAAR1 agonist activity at each concentration (%) (human TAAR1 receptor; [3]): 82%
29 | C[C@H]1Oc2c(F)ccnc2[C@@H]1CN [Example 59] | 19% | 65% | 84% | 
30 | C[C@@H]1C[C@@H](CN)c2ncc(F)cc2O1 [Example 66] | 21% | 66% | 82% | 
31 | NCC1CCOc2ccc(C(F)(F)F)nc21 (stereo not shown) [Example 67] | 1% | 10% | 39% | 
32 | NCC1CCNc2cccnc21 (stereo not shown) [Example 68] | 3% | 23% | 68% | 
33 | NCC1c2ncccc2OCC12CC2 (stereo not shown) [Example 69] | 4% | 30% | 62% | 
34 | Cc1ccnc2c1OCCC2CN (stereo not shown) [Example 70] | 0% | 23% | 57% | 
35 | C=CCNC[C@H]1c2ncccc2O[C@@H]1C [Example 71] | 0% | 6% | 29% | 
36 | CCCNC[C@H]1c2ncccc2O[C@@H]1C [Example 72] | 0% | 4% | 23% | 
37 | COCCNC[C@H]1c2ncccc2O[C@@H]1C [Example 73] | 0% | 9% | 40% | 
38 | CCNC[C@H]1c2ncccc2O[C@@H]1C [Example 74] | 7% | 46% | 92% | 
39 | NCC1CCc2c(Cl)ccnc21 (stereo not shown) [Example 75] | 0% | 26% | 75% | 
40 | CCOc1ccnc2c1CCC2CN (stereo not shown) [Example 76] | 0% | 6% | 33% | 
41 | CC1CCC(CN)c2ncccc21 (stereo not shown) [Example 77] | 0% | 11% | 47% | 
42 | CNCC1CC(C)c2cccnc21 (stereo not shown) [Example 78] | 0% | 5% | 27% | 
43 | [2H]C([2H])([2H])NC[C@H]1c2ncc(F)cc2O[C@@H]1C [Example 80] | 17% | 48% | 62% | 
44 | NCC1c2nc(Cl)ccc2OC12CC2 (stereo not shown) [Example 81] | 48% | 86% | 95% | 
45 | NCC1c2nc(F)ccc2OC12CC2 (stereo not shown) [Example 82] | 51% | 92% | 101% | 
